The values below come from EP3436445B1, “HISTONE DEMETHYLASE INHIBITORS” (Celgene Quanticel Research, Inc., priority 2016, dated 2017).

pIC50: −log10 of the molar value.

The target of the experiment is T1, FBXL10 (Homo sapiens, UniProt Q8NHM5).
T1 construct: purchased BPS Bioscience 50120
T1 sequence (Q8NHM5 1-650): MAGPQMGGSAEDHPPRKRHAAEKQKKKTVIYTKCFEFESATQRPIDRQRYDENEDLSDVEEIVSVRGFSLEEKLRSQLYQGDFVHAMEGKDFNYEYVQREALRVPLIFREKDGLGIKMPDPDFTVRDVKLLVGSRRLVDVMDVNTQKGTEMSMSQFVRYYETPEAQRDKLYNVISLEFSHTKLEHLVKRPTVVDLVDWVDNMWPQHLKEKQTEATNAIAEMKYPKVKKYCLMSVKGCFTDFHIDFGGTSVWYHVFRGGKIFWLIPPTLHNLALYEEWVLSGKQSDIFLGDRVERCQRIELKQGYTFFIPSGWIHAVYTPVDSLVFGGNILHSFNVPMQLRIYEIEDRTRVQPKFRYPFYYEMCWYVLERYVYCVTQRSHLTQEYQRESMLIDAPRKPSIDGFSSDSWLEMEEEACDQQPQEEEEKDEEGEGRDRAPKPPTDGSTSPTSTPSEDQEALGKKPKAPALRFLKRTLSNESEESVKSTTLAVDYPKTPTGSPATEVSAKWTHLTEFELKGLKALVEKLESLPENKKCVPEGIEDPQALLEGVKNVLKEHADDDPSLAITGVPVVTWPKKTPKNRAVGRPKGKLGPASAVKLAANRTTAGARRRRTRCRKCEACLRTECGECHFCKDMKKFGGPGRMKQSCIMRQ
Briefly: FBXL10 in vitro enzyme inhibition assay (AlphaScreen). It counts as biochemical. From the text:
This assay determines the ability of a test compound to inhibit FBXL11, FBXL10, and PHF8 demethylase activity. Baculovirus expressed FBXL11 (GenBank Accession #NM_012308, AA1-1162) was purchased from BPS Bioscience (Cat#50102). Baculovirus expressed FBXL10 (GenBank Accession #NM_032590, AA 1-650) was purchased from BPS Bioscience (Cat #50120). Baculovirus expressed PHF8 (GenBank Accession NP_055922.1) was purchased from Active Motif (Cat#31435).
The ability of test compounds to inhibit the activity of FBXL10 was determined in 384-well plate format under the following reaction conditions: 0.3 nM FBXL10, 30 nM H3K36me2-biotin labeled peptide (Anaspec cat # 64442), 0.2 µM alpha-ketoglutaric acid in assay buffer of 50 mM HEPES, pH7.3, 0.005% Brij35, 0.5 mM TCEP, 0.2 mg/ml BSA, 50 µM sodium L-ascorbate, 5 µM ammonium iron(II) sulfate. Reaction product is determined quantitatively by AlphaScreen detection after the addition of detection reagents anti-H3K36me1 antibody, AlphaScreen® Streptavidin-coated Donor beads, and AlphaScreen® Protein A Acceptor beads in 50 mM HEPES, pH7.3, 10 mM NaCl, 0.005% Brij35, 5 mM EDTA, 2 mg/ml BSA to final 10 µg/ml beads.
The assay reaction was initiated by the following: 3 µl of the mixture of 90 nM H3K36me2-biotin labeled peptide and 0.6 µM alpha-ketoglutaric acid with 3 µl of 11-point serial diluted inhibitor in 3% DMSO are added to each well of 384 well Proxiplate (Perkin Elmer), followed by the addition of 3 µl of 0.9 nM FBXL10 to initiate the reaction. The reaction mixture is incubated at room temperature for 1 hour, and terminated by the addition of 3 µl of appropriate dilution of anti H3K36me1 antibody in 50 mM HEPES, pH7.3, 10 mM NaCl, 0.005% Brij35, 5 mM EDTA, 2 mg/ml BSA. Plates will then incubated at room temperature for 40 minutes, followed by addition of 3 µl of 50 µg/ml AlphaScreen® Streptavidin-coated Donor beads and AlphaScreen® Protein A Acceptor beads in 50 mM HEPES, pH7.3, 10 mM NaCl, 0.005% Brij35, 5 mM EDTA, 2 mg/ml BSA. Plates will then be read by EnVision Multilabel Reader in AlphaScreen mode after minimum 2 hour incubation at room temperature. The AlphaScreen signal for each well is used to determine inhibition constant (IC50).
For orientation: In Alpha technology, singlet oxygen from a donor bead excites a nearby acceptor bead.

The mark [1] stands for this setting: Table 3, 0.3 nM FBXL10, H3K36me2-biotin labeled peptide.

As a reminder, the pIC50 is the IC50 on a negative log10 scale, so that one unit is a factor of ten. `c1ccc(Cn2cnc(-c3cc4[nH]nnc4cn3)c2)cc1` [Example 44, 1-benzyl-4-{1H-[1,2,3]triazolo[4,5-c]pyridin-6-yl}-1H-imidazole] showed a pIC50 under setting [1] of at least 7.00. `Clc1ccccc1Cn1cnc(-c2cc3[nH]nnc3cn2)c1` [Example 45, 1-[(2-chlorophenyl)methyl]-4-{1H-[1,2,3]triazolo[4,5-c]pyridin-6-yl}-1H-imidazole]: under setting [1], the pIC50 was at least 7.00. Still for that read-out and setting: to `Clc1cccc(Cn2cnc(-c3cc4[nH]nnc4cn3)c2)c1` [Example 46, 1-[(3-chlorophenyl)methyl]-4-{1H-[1,2,3]triazolo[4,5-c]pyridin-6-yl}-1H-imidazole] belongs at least 7.00; to `Clc1ccc(Cn2cnc(-c3cc4[nH]nnc4cn3)c2)cc1` [Example 47, 1-[(4-chlorophenyl)methyl]-4-{1H-[1,2,3]triazolo[4,5-c]pyridin-6-yl}-1H-imidazole], at least 7.00; to `Clc1ccc(Cn2cnc(-c3cc4[nH]nnc4cn3)c2)cc1Cl` [Example 48, 1-[(3,4-dichlorophenyl)methyl]-4-{1H-[1,2,3]triazolo[4,5-c]pyridin-6-yl}-1H-imidazole], at least 7.00. Still for that read-out and setting: for `Clc1ccc(-n2cnc(-c3cc4[nH]nnc4cn3)c2)cc1` [Example 49, 1-(4-chlorophenyl)-4-{1H-[1,2,3]triazolo[4,5-c]pyridin-6-yl}-1H-imidazole] the value was at least 7.00; for `Clc1ccccc1-n1cnc(-c2cc3[nH]nnc3cn2)c1` [Example 50, 1-(2-chlorophenyl)-4-{1H-[1,2,3]triazolo[4,5-c]pyridin-6-yl}-1H-imidazole], at least 7.00; for `Clc1cccc(-n2cnc(-c3cc4[nH]nnc4cn3)c2)c1` [Example 51, 1-(3-chlorophenyl)-4-{1H-[1,2,3]triazolo[4,5-c]pyridin-6-yl}-1H-imidazole], 6.00 to 7.00. The molecule `FC(F)(F)c1[nH]nnc1-c1ccnc(-c2cn(CCc3ccccc3Cl)cn2)c1` [Example 57] had a pIC50 (Table 5) of at least 7.00. Molecule `FC(F)(F)c1[nH]nnc1-c1ccnc(-c2cn(CC3CCCc4ccccc43)cn2)c1` (stereo not shown) [Example 58, 2-{1-[(1,2,3,4-tetrahydronaphthalen-1-yl)methyl]-1H-imidazol-4-yl}-4-[5-(trifluoromethyl)-1H-1,2,3-triazol-4-yl]pyridine] had a pIC50 (Table 5) of at least 7.00.

For `CCOc1ccccc1CCn1cnc(-c2cc(-c3nn[nH]c3C(F)(F)F)ccn2)c1` [Example 59], where the note is “Table 5”, the pIC50 was 6.00 to 7.00.

For the setting “Table 5”, `FC(F)(F)c1ccccc1CCn1cnc(-c2cc(-c3nn[nH]c3C(F)(F)F)ccn2)c1` [Example 60, 4-[5-(trifluoromethyl)-1H-1,2,3-triazol-4-yl]-2-(1-{2-[2-(trifluoromethyl)phenyl]ethyl}-1H-imidazol-4-yl)pyridine] had a pIC50 of 6.00 to 7.00. In the case of `Fc1ccc(Cn2cnc(-c3cc(-c4nn[nH]c4C(F)(F)F)ccn3)c2)cc1` [Example 61, 2-{1-[(4-fluorophenyl)methyl]-1H-imidazol-4-yl}-4-[5-(trifluoromethyl)-1H-1,2,3-triazol-4-yl]pyridine], the pIC50 (Table 5) is at least 7.00. Take `Fc1ccccc1Cn1cnc(-c2cc(-c3nn[nH]c3C(F)(F)F)ccn2)c1` [Example 62, 2-{1-[(2-fluoroprtenyl)methyl]-1H-imidazol-4-yl}-4-[5-(trifluoromethyl)-1H-1,2,3-triazol-4-yl]pyridine]: the pIC50 (Table 5) was at least 7.00.

Consider `FC(F)(F)c1[nH]nnc1-c1ccnc(-c2cn(Cc3ccc(Cl)cc3)cn2)c1` [Example 63, 2-{1-[(4-chlorophenyl)methyl]-1H-imidazol-4-yl}-4-[5-(trifluoromethyl)-1H-1,2,3-triazol-4-yl]pyridine], for which the pIC50 (Table 5) is at least 7.00. The same measure, in the same setting: to `FC(F)(F)c1[nH]nnc1-c1ccnc(-c2cn(Cc3ccccc3Cl)cn2)c1` [Example 64, 2-{1-[(2-chlorophenyl)methyl]-1H-imidazol-4-yl}-4-[5-(trifluoromethyl)-1H-1,2,3-triazol-4-yl]pyridine] belongs at least 7.00; to `Cc1ccc(Cn2cnc(-c3cc(-c4nn[nH]c4C(F)(F)F)ccn3)c2)cc1` [Example 65, 2-{1-[(4-methylphenyl)methyl]-1H-imidazol-4-yl}-4-[5-(trifluoromethyl)-1H-1,2,3-triazol-4-yl]pyridine], at least 7.00.

On to `Cc1ccccc1Cn1cnc(-c2cc(-c3nn[nH]c3C(F)(F)F)ccn2)c1` [Example 66, 2-{1-[(2-methylphenyl)methyl]-1H-imidazol-4-yl}-4-[5-(trifluoromethyl)-1H-1,2,3-triazol-4-yl]pyridine], for which the pIC50 (Table 5) is at least 7.00. `COc1ccc(Cn2cnc(-c3cc(-c4nn[nH]c4C(F)(F)F)ccn3)c2)cc1` [Example 67, 2-{1-[(4-methoxyphenyl)methyl]-1H-imidazol-4-yl}-4-[5-(trifluoromethyl)-1H-1,2,3-triazol-4-yl]pyridine] had a pIC50 (Table 5) of at least 7.00. The same measure, in the same setting: for `Fc1ccc(Cn2cnc(-c3cc(-c4nn[nH]c4C(F)(F)F)ccn3)c2)c(F)c1` [Example 68, 2-{1-[(2,4-difluorophenyl)methyl]-1H-imidazol-4-yl}-4-[5-(trifluoromethyl)-1H-1,2,3-triazol-4-yl]pyridine] the value was at least 7.00; for `Fc1cccc(F)c1Cn1cnc(-c2cc(-c3nn[nH]c3C(F)(F)F)ccn2)c1` [Example 69, 2-{1-[(2,6-difluorophenyl)methyl]-1H-imidazol-4-yl}-4-[5-(trifluoromethyl)-1H-1,2,3-triazol-4-yl]pyridine], at least 7.00; for `Cc1cc(F)ccc1Cn1cnc(-c2cc(-c3nn[nH]c3C(F)(F)F)ccn2)c1` [Example 70, 2-{1-[(4-fluoro-2-methylphenyl)methyl]-1H-imidazol-4-yl}-4-[5-(trifluoromethyl)-1H-1,2,3-triazol-4-yl]pyridine], at least 7.00. Where the note is “Table 5”, `Cc1ccc(Cn2cnc(-c3cc(-c4nn[nH]c4C(F)(F)F)ccn3)c2)c(F)c1` [Example 71, 2-{1-[(2-fluoro-4-methylphenyl)methyl]-1H-imidazol-4-yl}-4-[5-(trifluoromethyl)-1H-1,2,3-triazol-4-yl]pyridine] had a pIC50 of at least 7.00.

Molecule `FC(F)(F)c1[nH]nnc1-c1ccnc(-c2cn(Cc3ccccc3)cn2)c1` [Example 72, 2-(1-benzyl-1H-imidazol-4-yl)-4-[5-(trifluoromethyl)-1H-1,2,3-triazol-4-yl]pyridine] showed a pIC50 (Table 5) of at least 7.00. The same measure, in the same setting: for `CC(c1ccccc1)n1cnc(-c2cc(-c3nn[nH]c3C(F)(F)F)ccn2)c1` (stereo not shown) [Example 73, 2-[1-(1-phenylethyl)-1H-imidazol-4-yl]-4-[5-(trifluoromethyl)-1H-1,2,3-triazol-4-yl]pyridine] the value was at least 7.00. Where the note is “Table 5”, `CCC(c1ccccc1)n1cnc(-c2cc(-c3nn[nH]c3C(F)(F)F)ccn2)c1` (stereo not shown) [Example 74, 2-[1-(1-phenylpropyl)-1H-imidazol-4-yl]-4-[5-(trifluoromethyl)-1H-1,2,3-triazol-4-yl]pyridine] had a pIC50 of at least 7.00. With `CC(C)C(c1ccccc1)n1cnc(-c2cc(-c3nn[nH]c3C(F)(F)F)ccn2)c1` (stereo not shown) [Example 75, 2-[1-(2-methyl-1-phenylpropyl)-1H-imidazol-4-yl]-4-[5-(trifluoromethyl)-1H-1,2,3-triazol-4-yl]pyridine], where the note is “Table 5”, the pIC50 was 6.00 to 7.00.

In turn, `FC(F)(F)COc1ccccc1Cn1cnc(-c2cc(-c3nn[nH]c3C(F)(F)F)ccn2)c1` [Example 76, 2-(1-{[2-(2,2,2-trifluoroethoxy)phenyl]methyl}-1H-imidazol-4-yl)-4-[5-(trifluoromethyl)-1H-1,2,3-triazol-4-yl]pyridine] had a pIC50 (Table 5) of 6.00 to 7.00.
